Measured values taken from article PMC11061835, “Elucidating the Mechanism of Metabolism of Cannabichromene by Human Cytochrome P450s” (Journal of Natural Products, 2024).
pKd: −log10 of the molar value. Where “and” joins values, the source holds several entries; their conditions need not be identical. Equal values may be shown once.

Legend:
CYP2C8 = target: T1, CYP2C8 (Homo sapiens, UniProt P10632); experiment: Spectroscopic titration (Soret shift), CYP2C8; assay type: binding; details: CYP2C8, absence of CPR
T1 construct: His-tag; made in house; host or cells: E. coli DH-5α with pTGro7 plasmid
T1 sequence (P10632 1-490): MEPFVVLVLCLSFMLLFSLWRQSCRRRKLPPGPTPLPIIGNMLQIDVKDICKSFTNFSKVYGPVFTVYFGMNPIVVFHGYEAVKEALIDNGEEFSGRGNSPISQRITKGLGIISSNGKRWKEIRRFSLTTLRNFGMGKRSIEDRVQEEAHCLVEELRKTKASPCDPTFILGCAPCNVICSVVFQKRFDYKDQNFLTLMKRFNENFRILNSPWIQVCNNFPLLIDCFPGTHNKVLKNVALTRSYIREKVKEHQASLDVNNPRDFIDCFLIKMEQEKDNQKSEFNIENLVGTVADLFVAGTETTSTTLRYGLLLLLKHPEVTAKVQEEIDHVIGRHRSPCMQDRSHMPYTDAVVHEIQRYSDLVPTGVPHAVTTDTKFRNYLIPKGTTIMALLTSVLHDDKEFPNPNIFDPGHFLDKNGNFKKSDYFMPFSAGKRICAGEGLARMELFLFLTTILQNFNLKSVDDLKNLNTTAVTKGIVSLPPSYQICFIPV
Experimental: CBC binding to various CYPs was determined by analyzing the Soret shift from ∼417 to ∼390 nm. CBC (stock 10 mM) was dissolved in ethanol and titrated with different CYPs at room temperature. Buffer-exchanged CYP2J2, CYP2D6, CYP3A4, and CYP2C8 (concentrations of proteins were kept between 4 and 5 μM) were dissolved in 0.1 M phosphate buffer (pH = 7.4), and initial spectra were recorded from 200 to 800 nm with a prominent peak at 417 nm. The concentration of CBC was varied from 0 to 100 μM keeping the final concentration of substrate in EtOH not more than 1% in cuvette. 0–4 μL of stock CBC was added using a Hamilton syringe in both the sample and blank cuvettes. The mixture was incubated for 5 min at 37 °C, and absorbance spectra were recorded using a Cary Bio 300 UV–vis spectrophotometer (Agilent Technologies, Santa Clara, CA). To eliminate the background absorbance, we derived the final spectra by […].

CYP3A4 with CPR = target: T2, CYP3A4 with CPR (Homo sapiens, UniProt P08684); experiment: NADPH activity assay, CYP3A4 with CPR; assay type: biochemical; details: CYP3A4, CBC 50 μM vs substrate-free
T2 construct: His-tag; made in house; host or cells: E. coli DH-5α with pTGro7 plasmid (CYP)
T2 sequence (P08684 whole entry, one chain of several): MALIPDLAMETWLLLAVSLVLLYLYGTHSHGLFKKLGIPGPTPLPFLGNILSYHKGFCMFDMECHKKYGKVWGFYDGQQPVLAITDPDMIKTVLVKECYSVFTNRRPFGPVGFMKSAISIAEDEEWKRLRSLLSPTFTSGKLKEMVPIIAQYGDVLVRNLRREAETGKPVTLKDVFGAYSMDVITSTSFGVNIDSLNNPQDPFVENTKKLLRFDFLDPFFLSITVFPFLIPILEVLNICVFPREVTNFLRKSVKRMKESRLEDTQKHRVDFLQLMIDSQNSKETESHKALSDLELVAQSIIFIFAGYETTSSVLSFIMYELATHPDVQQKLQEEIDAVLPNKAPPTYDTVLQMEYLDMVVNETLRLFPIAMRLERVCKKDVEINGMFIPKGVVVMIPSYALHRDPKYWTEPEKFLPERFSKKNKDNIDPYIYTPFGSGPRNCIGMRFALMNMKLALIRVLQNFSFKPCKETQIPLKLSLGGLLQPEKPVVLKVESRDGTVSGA
Experimental: (§1) CYP-mediated NADPH oxidation was measured using kinetics mode in a Cary 300 UV–vis spectrometer (Agilent Technologies). 0.2 μM (final concentration) of CYP was taken in 0.1 M potassium phosphate buffer (pH 7.4) and incubated with 0.6 μM (final concentration) of CPR for 5 min with a reaction volume of 400 μL. The reaction was initiated with 200 μM of NADPH, and the absorption change was monitored over 10 min at 340 nm. The rate of NADPH consumption (or NADPH to NADP^+ conversion) was calculated by taking the molar extinction coefficient as 6.22 mM^–1 cm^–1 at 340 nm. To estimate the change in NADPH oxidation in the presence of CBC, both CYP and CPR were further incubated using CBC (final concentration 50 μM) for 5 min followed by measuring the change in absorbance at 340 nm as discussed earlier.

[1] = target: T3, CYP2C8 in the presence of CPR (Homo sapiens, UniProt P10632); experiment: Spectroscopic titration, CYP2C8–CPR complex; assay type: binding
T3 construct: His-tag; made in house; host or cells: E. coli DH-5α with pTGro7 plasmid (CYP)
T3 sequence (P10632 1-490): T1 sequence (P10632 1-490)
T3 sequence (P16435 1-677 partner): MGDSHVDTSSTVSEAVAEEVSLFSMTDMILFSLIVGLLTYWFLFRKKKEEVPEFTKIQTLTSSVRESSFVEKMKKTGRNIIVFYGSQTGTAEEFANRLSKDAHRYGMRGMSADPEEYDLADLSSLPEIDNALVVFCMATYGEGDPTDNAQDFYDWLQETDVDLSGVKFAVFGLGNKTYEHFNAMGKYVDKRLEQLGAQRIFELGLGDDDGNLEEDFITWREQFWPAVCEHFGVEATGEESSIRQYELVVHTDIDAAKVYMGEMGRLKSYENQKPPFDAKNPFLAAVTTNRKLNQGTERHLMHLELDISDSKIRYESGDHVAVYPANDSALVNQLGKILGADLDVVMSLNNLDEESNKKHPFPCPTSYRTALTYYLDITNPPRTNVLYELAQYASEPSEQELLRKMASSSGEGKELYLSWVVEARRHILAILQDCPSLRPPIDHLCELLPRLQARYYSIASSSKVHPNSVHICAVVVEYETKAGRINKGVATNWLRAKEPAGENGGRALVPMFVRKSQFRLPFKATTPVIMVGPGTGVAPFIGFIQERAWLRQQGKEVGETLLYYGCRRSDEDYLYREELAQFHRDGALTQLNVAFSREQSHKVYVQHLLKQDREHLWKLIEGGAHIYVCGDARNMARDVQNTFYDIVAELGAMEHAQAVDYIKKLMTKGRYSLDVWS
Experimental: (§2) For CBC titration to CYP–CPR complex, initially CYPs were dissolved in 400 μL of 0.1 M phosphate buffer (pH = 7.4) keeping the concentration between […]. Following this 50 μL of CPR (50 μM stock) was added to both cuvettes, and the final concentration of both of the proteins was 5–6 μM. Both proteins were initially mixed and incubated for 5 min followed by titration with CBC in the same process as mentioned above. The substrate-bound spectra were then subtracted from substrate-free spectra, and the extent of binding was analyzed using Origin Pro 2020.

CYP2C8 with CPR = target: T4, CYP2C8 with CPR (Homo sapiens, UniProt P10632); experiment: NADPH activity assay, CYP2C8 with CPR; assay type: biochemical; details: CYP2C8, CBC 50 μM vs substrate-free
T4 construct: His-tag; made in house; host or cells: E. coli DH-5α with pTGro7 plasmid (CYP)
T4 sequence (P10632 1-490): T1 sequence (P10632 1-490)
T4 sequence (P16435 1-677 partner): T3 sequence (P16435 1-677 partner)
Experimental: as §1

[2] = target: T5, CYP3A4 in the presence of CPR (Homo sapiens, UniProt P08684); experiment: Spectroscopic titration, CYP3A4–CPR complex; assay type: binding
T5 construct: His-tag; made in house; host or cells: E. coli DH-5α with pTGro7 plasmid (CYP)
T5 sequence (P08684 whole entry, one chain of several): as the sequence (P08684 whole entry, one chain of several) above
Experimental: as §2

CCCCCc1cc(O)c2c(c1)OC(C)(CCC=C(C)C)C=C2 (centres unmarked) [CBC, Cannabichromene]
ΔAmax (spin state change due to heme perturbation) (CYP2C8): 0.15 ± 0.00 and ~0.15 | pKd (CYP2C8; read-out: Kd(app)): 4.42 and ~4.42 | percentage increase of NADPH consumption in the presence of CBC (CYP3A4 with CPR): ~15% | ΔAmax (spin state change due to heme perturbation) [1]: 0.14 ± 0.00 and ~0.15 | pKd ([1]; read-out: Kd(app)): 5.08 and ~5.10 and > 5.00 | percentage increase of NADPH consumption in the presence of CBC (CYP2C8 with CPR): ~60% | ΔAmax (spin state change due to heme perturbation) [2]: 0.03 ± 0.00 and 0.03–0.04 | pKd ([2]; read-out: Kd(app)): 5.78 and ~5.80 and > 5.00
